In a melting point compilation (Tetko et al.; mined from patent text by program, amines drawn as free bases though some values may be those of a salt):

Point of comparison: `Clc1ccc(-c2ncn(CCCN3CCOCC3)c2-c2ccncc2)cc1Cl`, melting point 106 °C. Against it:
- COC(=O)CNC(=O)c1ccc(C(=O)NS(=O)(=O)c2ccc(CCNC(=O)CC3CCCCC3)cc2)cn1 — higher, 178 to 179 °C
- COC(=O)CCCc1cc2nc(Cl)ccc2n1S(=O)(=O)c1ccc(OC)cc1Cl — higher, 116 to 118 °C
- CC(C)C(NC(=O)OCc1csc(N2CCCC2)n1)C(=O)NN(C(=O)OCc1cncs1)C(Cc1ccccc1)CC(O)CCc1ccccc1 (stereo not given) — higher, 165 to 167 °C
- Cc1ccc(-c2nc(Cc3cccc(CBr)c3)c(C)o2)cc1 — lower, 101 to 102 °C
- COc1cc(N)c(Cl)cc1C(=O)N[C@H]1CCN(CCCC(=O)N2CCC(=O)CC2)C[C@H]1OC (relative stereo) — higher, 157 °C
- CC(COc1ccc2c(c1)CC/C(=C\c1cccs1)C2=O)n1ccnc1 (stereo not given) — higher, 160 to 162 °C
- O=C1C2CC(c3ccc([N+](=O)[O-])cc3)(C2)C(=O)N1Cc1ccccc1 — higher, 150 to 152 °C
- O=S1(=O)N(CCCN2CCN(c3ccc(F)cc3)CC2)c2cccc3c2N1CCC3 — lower, 98 °C
- O=C(O)CCc1oc(N2CCCCC2)nc1-c1ccc(Cl)cc1 — higher, 185 to 186 °C
- CC(C)(C)OC(=O)NCc1cccc(C(=O)OCC#N)c1O — higher, 144 to 146 °C
- CC(C)c1c(C(=O)c2ccccc2)n(COCc2ccccc2)c(=O)[nH]c1=O — higher, 184 °C
- CCCn1c(=O)c2[nH]c(/C=C/c3cccc(OC)c3OC)nc2n(CCC)c1=O — higher, 236 °C
- O=[N+]([O-])c1ccc(-c2cnc3nc(SCc4ccccc4)nn3c2)cc1 — higher, 195 to 199 °C
- O=C1CCC(c2ccc(-c3cccnc3)cc2)=NN1 — higher, 225 to 226 °C
- NCCC1CCSc2[nH]c3ccccc3c21 (stereo not given) — higher, 136 to 138 °C
- O=C(NCc1ccn(C2=CC3=C(CC2)CCc2[nH]c(=O)c(=O)[nH]c23)c1)Nc1ccccc1 — higher, > 240 °C
- CCOC(=O)C(C)(C)Oc1ccc(C(=O)Nc2ccccc2Sc2ccccc2-c2nnn[nH]2)cc1 — higher, 157 to 158 °C
- C(=C\c1nc(COc2ccc(CCn3ccnc3)cc2)co1)/c1ccccc1 — higher, 165 to 166 °C
- CCN(CC)CC1CCCN(CCNC(=O)N2c3ccccc3C(=O)Nc3cccnc32)C1 (stereo not given) — higher, 184 to 185 °C
- Cc1csc2ccc(C(O)=S)cc12 — higher, 205 to 207 °C
- CCCCCCCCCCCC(=O)Nc1cc([N+](=O)[O-])ccc1F — lower, 75 to 77 °C
- CCCC(=O)c1cccc2cc[nH]c12 — lower, 67.2 to 68.2 °C
- COC(=O)C1=C(C)NC2=C(C(=O)OC2)C1c1ccccc1C (stereo not given) — higher, 224 to 225 °C
- Nc1cccc2cc(C(=O)N3CCc4ccccc4C3)cnc12 — higher, 238 to 240 °C
- O=c1[nH]c(=O)n(CCCCBr)c2ccc(Cl)cc12 — higher, 154 to 156 °C
- CC1(c2ccc(F)cc2)NOCC1CN(O)C(N)=O (stereo not given) — higher, 135 to 137 °C
- Oc1nc(-c2ncccn2)nc(O)c1-c1cccs1 — higher, 244 to 246 °C
- COc1ccc(-c2c(C)c3cc(O)ccc3n2Cc2ccc(OCCN3CCCCC3)cc2)c(OC)c1 — lower, 85 to 92 °C
- Cc1sc2nc(N)[nH]c(=O)c2c1-c1ccc(F)cc1 — higher, 360 to 362 °C
- O=[N+]([O-])c1cnc2ccc(SC(F)F)cc2c1-c1ccccc1 — lower, 101 to 103 °C
- Clc1ccc2c(NNc3ccccc3)c3c(nc2c1)CCSC3 — higher, 201 to 202 °C
- CC(C)(C#N)c1cc(Cn2cncn2)cc(-c2ccc(OS(N)(=O)=O)c(Cl)c2)c1 — lower, 71 to 74 °C
- COc1c(O)cccc1C(=O)C1CCN(CCc2ccc(F)cc2)CC1 — lower, 100 to 101 °C
- Cc1ccsc1C(=O)c1sc(Nc2ccc(N3CCN(C)CC3)cc2)nc1N — higher, 237 to 238 °C
- COP(=O)(CCc1cccc2c1O[C@H]1C[C@@H](O)[C@H](CO)[C@@H]21)OC — not separable, 106 to 107 °C
- NCc1ccccc1CN — higher, > 250 °C
- COC(=O)CP(=O)(O)C(CCc1ccccc1)NC(=O)OCc1ccccc1 (stereo not given) — higher, 143 to 147 °C
- CC(=O)OCC(=O)C1=CCC2C3CCC4=CC(=O)CCC4(C)C34OC4CC12C (stereo not given) — higher, 129 to 130 °C
- Fc1ccc(N2CCN(CCCOc3ccccc3-c3nnco3)CC2)cc1 — lower, 102 to 103 °C
- CCOC(=O)N1CCC2C(O)CCCC21 (stereo not given) — higher, 153 to 155 °C
- CCCc1ccc(O)c2c(=O)cc(-c3nnn[nH]3)oc12 — higher, 242 to 245 °C
- COc1cc(N)c2nccc(C=Cc3cccc(C(F)(F)F)c3)c2c1 — higher, 124 to 126 °C
- O=[N+]([O-])c1ccc(OCCCN2CCC(C(O)(c3ccc(F)cc3)c3ccc(F)cc3)CC2)cc1 — lower, 93.5 to 94.5 °C
- CC(C)(C(=O)Nc1cccc(Cl)c1)N1COC(CBr)=C(c2ccccc2)C1=O — lower, 89.8 to 90.8 °C
- BrCc1ccc2ccccc2n1 — lower, 33 to 37 °C
- Cc1cc(OCCCCOc2ccc([N+](=O)[O-])c(C)c2)ccc1[N+](=O)[O-] — higher, 108 to 110 °C
- COc1cc2c(c(C(C(N)=O)c3ccccc3)c1)CC(C)O2 (stereo not given) — higher, 148 °C
- COC(=O)C(=O)NC(=O)CC(F)=C(F)F — lower, 33 to 34 °C
- CCn1cc(C(=O)NO)c(=O)c2ccc(-c3ccncc3)cc21 — higher, 245 °C
